System: non-anesthetized guinea pigs
Assay: preliminary tests: minimum lethal dose of ouabain
Assay type: in vivo, guinea pig
Conditions: intravenously administered over 3 minutes
Description: The experimental sudden death model was obtained by cardiac arrest induced by intravenous (i.v.) administration of a cardiotoxic agent (ouabain). In preliminary tests, various doses of ouabain were administered to non-anesthetized guinea pigs of both sexes of weight 300-380 g, in order to determine the minimum lethal dose for 100% of the animals within 15 minutes from i.v. injection (240 mg/kg, intravenously administered over 3 minutes).

Structure (SMILES): C[C@@H]1O[C@@H](O[C@H]2C[C@@H](O)[C@]3(CO)[C@H]4[C@H](O)C[C@]5(C)[C@@H](C6=CC(=O)OC6)CC[C@]5(O)[C@@H]4CC[C@]3(O)C2)[C@H](O)[C@H](O)[C@H]1O [ouabain]
- minimum lethal dose for 100% of the animals within 15 minutes from i.v. injection: 240 mg/kg

— patent publication US8648061B2, “Use of polyunsaturated fatty acids for the primary prevention of major cardiovascular events” (Pro Aparts Investimentos E. Consultoria LDA., priority 2001, dated 2014)
